Results from patent publication US11045561B2, “Rotaxane-type probe for molecular imaging” (Rhode Island Council on Postsecondary Education, priority 2017, dated 2021).

Tests used:
[1] = HyperCEST detection by hyperpolarized 129Xe NMR (fritted phantom, 3T clinical scanner); settings: 10 mM in water; saturation pulse at about +128 ppm; 3T scanner
Protocol: FIGS. 7A and 7B show HyperCEST data for rotaxane-type biosensors: (FIG. 7A) cucurbiturils and pillararene-based; (FIG. 7B) cycodextrin-based. [Note: ^a Samples were dissolved in water (2 mL, 10 mM), and 1D ^129Xe spectrum were initially recorded and then a series of HyperCEST spectra were sequentially recorded using a series of off resonance pulses varying by 5 ppm. ^b Performed in H2O/DMSO. ^c Performed in CHCl3.]
For the HP-Xe studies, we used a custom-built fritted phantom inside of a custom dual tuned ^1H/^129Xe radiofrequency (RF) coil to acquire all free induction decay (FID) spectra (FIG. 6). Rotaxane-type biosensor molecules, dissolved in water and/or DMSO, were placed inside the fritted phantom, and HP ^129Xe was introduced below the fritted phantom that created microbubbles that rose vertically through the sample. A series of saturation pre-pulses at a variety of chemical shift offsets were loaded into the user interface software of the […] Achieva 3T MR scanner. Spectra with different saturation pre-pulses were acquired approximately every six seconds. […]
Nuclear Magnetic Resonance (NMR) HyperCEST Detection. […] The RF pulse length was determined with the use of the Ref B1, a parameter of Philips MR scanners. […] In this study, the B1 field strength was determined by the scanner to be 15.9 μT. […]

[2] = cited from earlier work; for affinity for xenon as observed by 129Xe NMR: aqueous media, room temperature for cyclodextrins

Compound | affinity for xenon as observed by 129Xe NMR [2] | also measured
O=C1N2CN3C(=O)N4CN5C(=O)N6CN7C(=O)N8CN9C(=O)N%10CN%11C(=O)N%12CN1C1C2N2CN%13C(=O)N(CN%14C(=O)N(CN%15C(=O)N(CN%16C(=O)N(CN%17C(=O)N(CN1C2=O)C%12C%11%17)C%10C9%16)C8C7%15)C6C5%14)C4C3%13 (stereo not shown) [CB6, cucurbit[6]uril] |  | HyperCEST depletion (maximum) [1]: 67%
O=C1N2CN3C(=O)N4CN5C(=O)N6CN7C(=O)N8CN9C(=O)N%10CN%11C(=O)N%12CN%13C(=O)N%14CN%15C(=O)N%16CN1C1C2N2CN%17C(=O)N(CN%18C(=O)N(CN%19C(=O)N(CN%20C(=O)N(CN%21C(=O)N(CN%22C(=O)N(CN%23C(=O)N(CN1C2=O)C%16C%15%23)C%14C%13%22)C%12C%11%21)C%10C9%20)C8C7%19)C6C5%18)C4C3%17 (stereo not shown) [CB[8], cucurbit[8]uril] | do not show any affinity for xenon | 
COc1cc2c3cc1OCCOc1cc4c(cc1OC)Cc1cc5c(OC)cc1Cc1cc(c(OC)cc1C4)OCCOc1cc(c(cc1OC)C3)Cc1cc(OC)c(cc1C2)OCCO5 [Cryptophane-A] |  | xenon residence time ([2]; room temperature): 0.5 to 8 ms
OC[C@H]1O[C@@H]2O[C@H]3[C@H](O)[C@@H](O)[C@@H](O[C@H]4[C@H](O)[C@@H](O)[C@@H](O[C@H]5[C@H](O)[C@@H](O)[C@@H](O[C@H]6[C@H](O)[C@@H](O)[C@@H](O[C@H]7[C@H](O)[C@@H](O)[C@@H](O[C@H]1[C@H](O)[C@H]2O)O[C@@H]7CO)O[C@@H]6CO)O[C@@H]5CO)O[C@@H]4CO)O[C@@H]3CO [α-CD, α-cyclodextrin] | either fail to bind xenon in aqueous media, or the reversible binding has too fast of an exchange rate to be detectable | 
OC[C@H]1O[C@@H]2O[C@H]3[C@H](O)[C@@H](O)[C@@H](O[C@H]4[C@H](O)[C@@H](O)[C@@H](O[C@H]5[C@H](O)[C@@H](O)[C@@H](O[C@H]6[C@H](O)[C@@H](O)[C@@H](O[C@H]7[C@H](O)[C@@H](O)[C@@H](O[C@H]8[C@H](O)[C@@H](O)[C@@H](O[C@H]1[C@H](O)[C@H]2O)O[C@@H]8CO)O[C@@H]7CO)O[C@@H]6CO)O[C@@H]5CO)O[C@@H]4CO)O[C@@H]3CO [β-CD, β-cyclodextrin] | either fail to bind xenon in aqueous media, or the reversible binding has too fast of an exchange rate to be detectable | 
OC[C@H]1O[C@@H]2O[C@H]3[C@H](O)[C@@H](O)[C@@H](O[C@H]4[C@H](O)[C@@H](O)[C@@H](O[C@H]5[C@H](O)[C@@H](O)[C@@H](O[C@H]6[C@H](O)[C@@H](O)[C@@H](O[C@H]7[C@H](O)[C@@H](O)[C@@H](O[C@H]8[C@H](O)[C@@H](O)[C@@H](O[C@H]9[C@H](O)[C@@H](O)[C@@H](O[C@H]1[C@H](O)[C@H]2O)O[C@@H]9CO)O[C@@H]8CO)O[C@@H]7CO)O[C@@H]6CO)O[C@@H]5CO)O[C@@H]4CO)O[C@@H]3CO [γ-CD, γ-cyclodextrin] | either fail to bind xenon in aqueous media, or the reversible binding has too fast of an exchange rate to be detectable | 
cucurbit[7]uril [CB[7]] | do not show any affinity for xenon | 
